Structures can show the parent of a compound that is named as a salt.
Assay: Elevation in surface tension of surfactant solution in the presence of cyclodextrin
Assay type: physicochemical
Conditions: in the presence of a typical cyclodextrin (about 1% solution)
Excerpt: Suitable cyclodextrin-compatible surfactants can be readily identified by the absence of effect of cyclodextrin on the surface tension provided by the surfactant. This is achieved by determining the surface tension (in dyne/cm) of aqueous solutions of the surfactant in the presence and in the absence of about 1% of a specific cyclodextrin in the solutions. The aqueous solutions contain surfactant at concentrations of approximately 0.5%, 0.1%, 0.01%, and 0.005%. The cyclodextrin can affect the surface activity of a surfactant by elevating the surface tension of the surfactant solution. If the surface tension at a given concentration in water differs by more than about 10% from the surface tension of the same surfactant in the 1% solution of the cyclodextrin, that is an indication of a strong interaction between the surfactant and the cyclodextrin. The preferred surfactants herein should have a surface tension in an aqueous solution that is different (lower) by less than about 10%, preferably less than about 5%, and more preferably less than about 1% from that of the same concentration solution containing 1% cyclodextrin.
The cyclodextrin-compatible surfactants described above are either weakly interactive with cyclodextrin (less than 5% elevation in surface tension), or non-interactive (less than 1% elevation in surface tension).

Molecule	elevation in surface tension
dodecanolpoly(6)ethoxylate	> 10%
CCCCCCCCCCCCOS(=O)(=O)[O-].[Na+] [sodium dodecyl sulfate]	> 10%

Assay: not given
Conditions: cited from earlier work

Molecule	stability over a wide pH range
O=c1[nH]sc2ccccc12 [Proxel, 1,2-benzisothiazolin-3-one]	4-12
Cn1sc2c(c1=O)CCC2 [Promexal, 2-methyl-4,5-trimethylene-4-isothiazolin-3-one]	4-12

Assay: not given
Conditions: in water; cited from earlier work

Molecule	solubility in water
OCc1ccccc1 [benzyl alcohol]	about 4%
[Na+].[O-][n+]1ccccc1[S-] [sodium pyrithione]	about 50%
CC(C)(O)C(Cl)(Cl)Cl [chlorobutanol, 1,1,1-Trichloro-2-methylpropan-2-ol]	about 0.8%
CC1(C)C(=O)N(CO)C(=O)N1CO [DMDM hydantoin, 1,3-bis(hydroxymethyl)-5,5-dimethyl-2,4-imidazolidinedione]	more than 50%
[H]/N=C(\N/C(=N/[H])NCCCCCCNC(=N)NC(=N)Nc1ccc(Cl)cc1)Nc1ccc(Cl)cc1 [digluconate salt, 1,1'-hexamethylene bis(5-(p-chlorophenyl)biguanide), reference compound]	about 70%
OCCc1ccccc1 [2-phenylethanol]	about 2%
OCCOc1ccccc1 [2-phenoxyethanol]	about 2.67%
O=[N+]([O-])C1(Br)COCOC1 [Bronidox L, 5-bromo-5-nitro-1,3-dioxane]	about 0.46%
[H]/N=C(\N/C(=N/[H])NCCCCCCNC(=N)NC(=N)Nc1ccc(Cl)cc1)Nc1ccc(Cl)cc1 [diacetate salt, 1,1'-hexamethylene bis(5-(p-chlorophenyl)biguanide), reference compound]	about 1.8%

Same assay, conditions: result in words; cited from earlier work

Molecule	solubility in water
ClC=CC[N+]12CN3CN(CN(C3)C1)C2.[Cl-] [Dowicil 200, 1-(3-Chlorallyl) -3,5,7-triaza-1-azoniaadamantane chloride]	freely soluble in water

Assay: Interaction of perfume components with cyclodextrin (CD)
Assay type: physicochemical
Conditions: perfume component with cyclodextrin
Excerpt: The following table illustrates the molecular weight property of some of the preferred perfume versus non-preferred perfume components.
Examples of Perfume Components for CD Interaction

Molecule	CD interaction
CCCCCCCCCCCCCC(=O)OC(C)C [Iso-propyl Myristate]	weak
CC(C=O)Cc1ccc(C(C)(C)C)cc1 (centres unmarked) [Lilial, Lilial (p-t-bucinal)]	strong
CC(=O)C1(C)CC2=C(CCCC2(C)C)CC1C (centres unmarked) [Iso-E Super]	weak
a-Me Ionone	strong
CC(=O)OC(C)(C)C1CC=C(C)CC1 (centres unmarked) [Terpinyl Acetate]	significant
CCCCCCC(C=O)=Cc1ccccc1 [Hexyl cinnamic Aldehyde]	weak
CCC(=O)OC1CC2CC1C1CC=CC21 (centres unmarked) [Frutene]	strong
CC(C)(O)CCCC1=CCC(C=O)CC1 (centres unmarked) [Lyral]	weak
CC1COCc2cc3c(cc21)C(C)(C)C(C)C3(C)C (centres unmarked) [Galaxolide]	weak
CC(=O)/C=C/C1C(C)=CCCC1(C)C (centres unmarked) [a-ionone]	strong
CC(=O)OC1CC2CC1C1CC=CC21 (centres unmarked) [Flor Acetate]	strong
CC(=O)C(C)=C(C)C(C)C(C)(C)C (centres unmarked) [Koavone]	strong
CC(C=O)Cc1ccc(C(C)C)cc1 (centres unmarked) [Cymal]	strong
CCOC(=O)c1ccccc1C(=O)OCC [Diethyl Phthalate]	weak
O=C(Cc1ccccc1)OCCc1ccccc1 [Phenyl-Ethyl-Phenyl Acetate]	weak
CC(=O)OC1CCC(C(C)(C)C)CC1 (centres unmarked) [Vertenex, para-tert-butylcyclohexyl acetate]	strong
CCCCCC1C(=O)CCC1CC(=O)OC (centres unmarked) [Methyl Dihydro Jasmonate]	weak
CCCCCCOC(=O)c1ccccc1O [Hexyl Salicylate]	weak

— patent EP1212395B1, “IMPROVED METHODS, COMPOSITIONS, AND ARTICLES FOR ODOR CONTROL” (THE PROCTER & GAMBLE COMPANY, priority 1999, dated 2001)
